Results: patent US12577234B2, “Antagonists of the muscarinic acetylcholine receptor M4” (Vanderbilt University, priority 2017, dated 2026)

Biological target: T1, human mAChR M4 (Homo sapiens, UniProt P08173)
T1 construct: expressed in transfected cells; host or cells: CHO-K1 (ATCC), stably co-expressing chimeric G protein Gqi5
T1 sequence (P08173 1-479): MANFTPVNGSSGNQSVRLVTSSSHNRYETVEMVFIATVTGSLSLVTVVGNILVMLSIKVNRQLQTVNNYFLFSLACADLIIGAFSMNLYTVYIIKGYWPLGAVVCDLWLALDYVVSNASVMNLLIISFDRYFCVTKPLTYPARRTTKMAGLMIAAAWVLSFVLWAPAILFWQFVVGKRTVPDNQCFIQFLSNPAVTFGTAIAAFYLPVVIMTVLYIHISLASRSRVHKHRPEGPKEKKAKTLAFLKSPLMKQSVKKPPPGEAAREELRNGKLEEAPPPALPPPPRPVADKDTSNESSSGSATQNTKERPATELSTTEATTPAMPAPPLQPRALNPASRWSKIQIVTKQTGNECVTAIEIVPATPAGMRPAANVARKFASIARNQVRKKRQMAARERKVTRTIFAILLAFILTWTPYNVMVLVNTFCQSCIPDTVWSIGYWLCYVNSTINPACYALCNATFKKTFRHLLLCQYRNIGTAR
Assay: mAChR M4 cell-based functional assay (calcium mobilization, EC80 acetylcholine), human M4
Conditions: Table 9; for IC50: M4/Gqi5/CHO-K1 cells, decrease of EC80 acetylcholine response; for Emin: human M4, % ACh maximum at 30 μM
Procedure: Human or rat M4 cDNA, along with the chimeric G protein Gqi5, were transfected into Chinese hamster ovary (CHO-K1) cells purchased from the American Type Culture Collection using Lipofectamine2000. M4/Gqi5/CHO cells were grown in Ham's F-12 medium containing 10% heat-inactivated fetal bovine serum (FBS), 20 mM HEPES, 500 μg/mL G418 sulfate, and 200 μg/mL Hygromycin B.
For high throughput measurement of agonist-evoked increases in intracellular calcium, CHO-K1 cells stably expressing muscarinic receptors were plated in growth medium lacking G418 and hygromycin at 15,000 cells/20 μL/well in Greiner 384-well black-walled, tissue culture (TC)-treated, clear-bottom plates (VWR). Cells were incubated overnight at 37° C. and 5% CO2. […] Compound master plates were formatted in a 10 point concentration-response curve (CRC) format (1:3 dilutions) in 100% DMSO with a starting concentration of 10 or 1 mM using a BRAVO liquid handler (Agilent). Test compound CRCs were then transferred to daughter plates (240 nL) using the Echo acoustic plate reformatter (Labcyte, Sunnyvale, CA) and then diluted into assay buffer (40 μL) to a 2× stock using a Thermo Fisher Combi (Thermo Fisher Scientific, Waltham, MA).
Calcium flux was measured using the Functional Drug Screening System (FDSS) 6000 or 7000 (Hamamatsu Corporation, Tokyo, Japan) as an increase in the fluorescent static ratio. Compounds were applied to cells (20 μL, 2×) using the automated system of the FDSS at 2 seconds into the protocol and the data were collected at 1 Hz. […] Agonist activity was analyzed as a concentration-dependent increase in calcium mobilization upon compound addition. Positive allosteric modulator activity was analyzed as a concentration-dependent increase in the EC20 acetylcholine response. Antagonist activity was analyzed as a concentration-dependent decrease in the EC80 acetylcholine response; for the purposes of the tables herein, an IC50 (inhibitory concentration 50) was calculated as a concentration-dependent decrease of the response elicited by an EC80 concentration of acetylcholine. Concentration-response curves were generated using a four-parameter logistical equation in XLFit curve fitting software (IDBS, Bridgewater, NJ) for Excel (Microsoft, Redmond, WA) or Prism (GraphPad Software, Inc., San Diego, CA) or the Dotmatics software platform (Dotmatics, Bishop's Stortford, UK).

SMILES	IC50 [nM]	Emin [%]
CC(C)(C)CCN1C[C@H]2C[C@H](Nc3ccc(-c4cc(F)ccc4Cl)nn3)C[C@H]2C1 [Compound 28, (3aR,5s,6aS)-N-[6-(2-chloro-5-fluoro-phenyl)pyridazin-3-yl]-2-(3,3-dimethylbutyl)-3,3a,4,5,6,6a-hexahydro-1H-cyclopenta[c]pyrrol-5-amine]	10	3.53
CCC(C)CN1C[C@H]2C[C@H](Nc3ccc(-c4cc(F)ccc4Cl)nn3)C[C@H]2C1 (stereo partly drawn) [Compound 29, (3aR,5s,6aS)-N-[6-(2-chloro-5-fluoro-phenyl)pyridazin-3-yl]-2-(2-methylbutyl)-3,3a,4,5,6,6a-hexahydro-1H-cyclopenta[c]pyrrol-5-amine]	2.6	7.8
CCCC(C)CN1C[C@H]2C[C@H](Nc3ccc(-c4cc(F)ccc4Cl)nn3)C[C@H]2C1 (stereo partly drawn) [Compound 30, (3aR,5s,6aS)-N-[6-(2-chloro-5-fluoro-phenyl)pyridazin-3-yl]-2-(2-methylpentyl)-3,3a,4,5,6,6a-hexahydro-1H-cyclopenta[c]pyrrol-5-amine]	10	2.88
Fc1ccc(Cl)c(-c2ccc(N[C@H]3C[C@@H]4CN(CC5CCCCC5)C[C@@H]4C3)nn2)c1 [Compound 31, (3aR,5s,6aS)-N-[6-(2-chloro-5-fluoro-phenyl)pyridazin-3-yl]-2-(cyclohexylmethyl)-3,3a,4,5,6,6a-hexahydro-1H-cyclopenta[c]pyrrol-5-amine]	8.6	4.96
Fc1ccc(Cl)c(-c2ccc(N[C@H]3C[C@@H]4CN(CC5CCOCC5)C[C@@H]4C3)nn2)c1 [Compound 32, (3aR,5s,6aS)-N-[6-(2-chloro-5-fluoro-phenyl)pyridazin-3-yl]-2-(tetrahydropyran-4-ylmethyl)-3,3a,4,5,6,6a-hexahydro-1H-cyclopenta[c]pyrrol-5-amine]	0.7	4.92
Fc1ccc(Cl)c(-c2ccc(N[C@H]3C[C@@H]4CN(CC5CCCOC5)C[C@@H]4C3)nn2)c1 (stereo partly drawn) [Compound 33, (3aR,5s,6aS)-N-[6-(2-chloro-5-fluoro-phenyl)pyridazin-3-yl]-2-(tetrahydropyran-3-ylmethyl)-3,3a,4,5,6,6a-hexahydro-1H-cyclopenta[c]pyrrol-5-amine]	1.2	6.3
Fc1ccc(Cl)c(-c2ccc(N[C@H]3C[C@@H]4CN(Cc5ccccc5)C[C@@H]4C3)nn2)c1 [Compound 34, (3aR,5s,6aS)-2-benzyl-N-[6-(2-chloro-5-fluoro-phenyl)pyridazin-3-yl]-3,3a,4,5,6,6a-hexahydro-1H-cyclopenta[c]pyrrol-5-amine]	16.8	8.84
Cc1cccnc1CN1C[C@H]2C[C@H](Nc3ccc(-c4cc(F)ccc4Cl)nn3)C[C@H]2C1 [Compound 35, (3aR,5s,6aS)-N-[6-(2-chloro-5-fluoro-phenyl)pyridazin-3-yl]-2-[(3-methyl-2-pyridyl)methyl]-3,3a,4,5,6,6a-hexahydro-1H-cyclopenta[c]pyrrol-5-amine]	3.4	6.1
Fc1ccc(Cl)c(-c2ccc(N[C@H]3C[C@@H]4CN(Cc5ccccc5F)C[C@@H]4C3)nn2)c1 [Compound 36, (3aR,5s,6aS)-N-[6-(2-chloro-5-fluoro-phenyl)pyridazin-3-yl]-2-[(2-fluorophenyl)methyl]-3,3a,4,5,6,6a-hexahydro-1H-cyclopenta[c]pyrrol-5-amine]	14.6	6.22
Cc1nn(C)cc1-c1ccc(N[C@H]2C[C@@H]3CN(CC45CC6CC(CC(C6)C4)C5)C[C@@H]3C2)nn1 [Compound 37, (3aR,5s,6aS)-2-(1-adamantylmethyl)-N-[6-(1,3-dimethylpyrazol-4-yl)pyridazin-3-yl]-3,3a,4,5,6,6a-hexahydro-1H-cyclopenta[c]pyrrol-5-amine]	25.8	5.65
Cc1cnn(C)c1-c1ccc(N[C@H]2C[C@@H]3CN(CC4CCCCO4)C[C@@H]3C2)nn1 (stereo partly drawn) [Compound 38, (3aR,5s,6aS)-N-[6-(2,4-dimethylpyrazol-3-yl)pyridazin-3-yl]-2-(tetrahydropyran-2-ylmethyl)-3,3a,4,5,6,6a-hexahydro-1H-cyclopenta[c]pyrrol-5-amine]	31.8	5.45
CC(=O)Nc1ccc(-c2ccc(N[C@@H]3C[C@@H]4CN(CCC(C)(C)C)C[C@@H]4C3)nn2)cc1 [Compound 39, N-[4-[6-[[(3aR,5r,6aS)-2-(3,3-Dimethylbutyl)-3,3a,4,5,6,6a-hexahydro-1H-cyclopenta[c]pyrrol-5-yl]amino]pyridazin-3-yl]phenyl]acetamide]	8280	26.8
Cc1nn(C)cc1-c1ccc(N[C@@H]2C[C@@H]3CN(CCC(C)(C)C)C[C@@H]3C2)c(F)c1F [Compound 41, (3aR,5r,6aS)-2-(3,3-Dimethylbutyl)-N-[4-(1,3-dimethylpyrazol-4-yl)-2,3-difluoro-phenyl]-3,3a,4,5,6,6a-hexahydro-1H-cyclopenta[c]pyrrol-5-amine]	433	4.62
Cc1nn(C)cc1-c1ccc(N[C@@H]2C[C@@H]3CN(CC4CC5C=CC4C5)C[C@@H]3C2)c(F)c1F (stereo partly drawn) [Compound 42, (3aR,5r,6aS)-2-(5-bicyclo[2.2.1]hept-2-enylmethyl)-N-[4-(1,3-dimethylpyrazol-4-yl)-2,3-difluoro-phenyl]-3,3a,4,5,6,6a-hexahydro-1H-cyclopenta[c]pyrrol-5-amine]	422	4.00
Cc1nn(C)cc1-c1ccc(N[C@@H]2C[C@@H]3CN(CC4CCCCC4)C[C@@H]3C2)c(F)c1F [Compound 43, (3aR,5r,6aS)-2-(cyclohexylmethyl)-N-[4-(1,3-dimethylpyrazol-4-yl)-2,3-difluoro-phenyl]-3,3a,4,5,6,6a-hexahydro-1H-cyclopenta[c]pyrrol-5-amine]	1210	5.25
Cc1nn(C)cc1-c1ccc(N[C@@H]2C[C@@H]3CN(CC4CCCCCC4)C[C@@H]3C2)c(F)c1F [Compound 44, (3aR,5r,6aS)-2-(cycloheptylmethyl)-N-[4-(1,3-dimethylpyrazol-4-yl)-2,3-difluoro-phenyl]-3,3a,4,5,6,6a-hexahydro-1H-cyclopenta[c]pyrrol-5-amine]	2150	5.01
Cc1nn(C)cc1-c1ccc(N[C@@H]2C[C@@H]3CN(CC45CC6CC(CC(C6)C4)C5)C[C@@H]3C2)c(F)c1F [Compound 45, (3aR,5r,6aS)-2-(1-adamantylmethyl)-N-[4-(1,3-dimethylpyrazol-4-yl)-2,3-difluoro-phenyl]-3,3a,4,5,6,6a-hexahydro-1H-cyclopenta[c]pyrrol-5-amine]	6590	12.0
Cc1nn(C)cc1-c1ccc(O[C@@H]2C[C@@H]3CN(CC(C)C(C)(C)C)C[C@@H]3C2)nn1 (stereo partly drawn) [Compound 46, (3aR,5r,6aS)-5-[6-(1,3-Dimethylpyrazol-4-yl)pyridazin-3-yl]oxy-2-(2,3,3-trimethylbutyl)-3,3a,4,5,6,6a-hexahydro-1H-cyclopenta[c]pyrrole]	1130	4.08
Cc1nn(C)cc1-c1ccc(O[C@@H]2C[C@@H]3CN(CC4CC5C=CC4C5)C[C@@H]3C2)nn1 (stereo partly drawn) [Compound 47, (3aR,5r,6aS)-2-(5-bicyclo[2.2.1]hept-2-enylmethyl)-5-[6-(1,3-dimethylpyrazol-4-yl)pyridazin-3-yl]oxy-3,3a,4,5,6,6a-hexahydro-1H-cyclopenta[c]pyrrole]	94.5	3.08
